How the values were obtained:
BuChE from human serum = target: T1, BuChE from human serum (Homo sapiens, UniProt P06276); test: In vitro BuChE inhibition assay (Ellman); format: biochemical; settings: mean ± SEM, 3 experiments, butyrylthiocholine substrate
T1 construct: BuChE from human serum (EC 3.1.1.8); purchased Sigma; host or cells: human serum (tissue-derived)
Protocol: (§1) AChE from human erythrocytes (EC 3.1.1.7) (min. 500 units/mg protein in buffered aqueous solution) and BuChE from human serum (EC 3.1.1.8) (3 units/mg protein, lyophilised powder) were purchased from Sigma.
(§2) Compounds were evaluated in 100 mM phosphate buffer pH 8.0 at 30 °C, using acetylthiocholine and butyrylthiocholine (0.4 mM) as substrates, respectively. In both cases, 5,5-dithio-bis(2-nitrobenzoic) acid (DTNB, Ellman’s reagent, 0.2 mM) was used and the values of IC50 were calculated by UV spectroscopy from the absorbance changes at 412 nm. Experiments were performed in triplicate.

BACE1 = target: T2, BACE1 (Homo sapiens, UniProt P56817); test: BACE1 enzymatic FRET assay; format: biochemical; settings: pH 4.5, mean ± SEM
T2 construct: purchased Invitrogen
Protocol: The BACE1 ([…]) assay was carried out according to the manufacturer’s described protocol which is available from Invitrogen[36].
Briefly, BACE1 in vitro assays were carried out using fluorescence resonance energy transfer (FRET). An APP-based peptide substrate (rhodamine-EVNLDAEFK-quencher, Km of 20 μM) carrying the Swedish mutation and containing rhodamine as a fluorescence donor and a quencher acceptor at each end was used. The intact substrate is weakly fluorescent and becomes highly fluorescent upon enzymatic cleavage. The assays were conducted in 50 mM sodium acetate buffer, pH 4.5, at a final enzyme concentration of 1 U/mL. Inhibitor screening was performed at 10 μM. The mixture was incubated for 60 min at 25 °C under dark conditions and then stopped with 2.5 M sodium acetate. Fluorescence was measured with a FLUOstar Optima (BMG Labtechnologies GmbH, Offenburg, Germany) microplate reader at 545 nm excitation and 585 nm emission. The assay kit was validated by the manufacturer.

[1] = Oxygen radical absorbance capacity assay (ORAC-FL); settings: pH 7.4
Protocol: The ORAC-FL method of Ou et al.[37], partially modified by Dávalos et al.[38], was followed, using a FLUOstar Optima (BMG Labtechnologies GmbH, Offenburg, Germany) with 485 excitation and 520 emission filters. 2,2′-Azobis-(amidinopropane) dihydrochloride (AAPH), (±)-6-hydroxy-2,5,7,8-tetramethylchromane-2-carboxylic acid (trolox) and fluorescein (FL) were purchased from Sigma-Aldrich. The reaction was carried out in 75 mM phosphate buffer (pH 7.4) and the final reaction mixture was 200 µL. […] The mixture was pre-incubated for 30 min at 37 °C and then AAPH solution (25 µL, 240 mM) was added rapidly using a multichannel pipette. The microplate was immediately placed in the reader and the fluorescence was recorded every 90 s. for 90 min. The microplate was automatically shaken prior to each reading. Samples were measured at four different concentrations (10^−1 µM). A blank (FL + AAPH in phosphate buffer) instead of the sample solution and four calibration solutions using trolox (10^−1 µM) was also used in each assay. All of the reaction mixtures were prepared in duplicate and at least three independent assays were performed for each sample. Raw data were exported from the Fluostar optima Software to an Excel sheet for further calculations. Antioxidant curves (fluorescence vs. time) were represented and the area under the curve (AUC) is calculated as: AUC =f1/f0+fi/f0+ … +f34/f0+ (f35/f0) where fo = initial fluorescence reading at 0 min and fi = fluorescence reading at time i. The net AUC is obtained by subtracting the AUC of the blank from that of a sample. The relative Trolox equivalent ORAC value is calculated as: Relative ORAC value =[(AUC sample - AUC blank)/(AUCT rolox - AUC blank)](molarity of trolox/molarity of sample)

[2] = tested on: SH-SY5Y human neuroblastoma cells; test: Amyloid-beta peptide neurotoxicity, neuroprotection in SH-SY5Y cells (MTT); format: cell-based; settings: 24 h
Protocol: SH-SY5Y human neuroblastoma cells were obtained from American Type Culture Collection. Cells were maintained at 37 °C in a 5% CO2 humidified atmosphere in DMEM-Glutamax supplemented with heat-inactivated 10% foetal bovine serum and 1% penicillin/streptomycin. All experiments with Aβ1–42 used DMEM-Glutamax without phenol in the media.
The compounds were dissolved in 100% dimethyl sulphoxide (DMSO) as a 10 mM stock and diluted with culture medium to final concentrations. Aβ1–42 powder (AnaSpec, Inc., San Jose, CA) was dissolved in acetic acid (0.1 M) obtaining a 2 μg/μL stock. Then Aβ1-42 was oligomerised in no phenol red DMEM for 24 h at 37 °C. The final concentration in cells cultures was 5 μM. All dilutions of stock were prepared fresh before addition to the culture medium.
SH-SY5Y cells were treated with 5 μM Aβ1-42 for 24 h and pre-treated or not for 1 h with increasing concentrations of compounds. After treatment, cultures were processed for a cell viability assay using MTT assay.
(§3) Cell viability was measured using the 3-(4,5-Dimethylthiazol-2-yl)-2,5-diphenyltetrazolium bromide (MTT) assay, based on the ability of viable cells to reduce yellow MTT to blue formazan. Briefly, cells cultured in 96-well plates and treated with the indicated compounds for 16 h were incubated with MTT (0.5 mg/ml, 4 h) and subsequently solubilised in DMSO. The extent of reduction of MTT was quantified by absorbance measurement at 595 nm according to the manufacturer’s protocol.

[3] = target: T3, AChE from human erythrocytes (Homo sapiens, UniProt P22303); test: In vitro AChE inhibition assay (Ellman); format: biochemical; settings: for inhibition at 10 µM: 10 µM compound, read-out: AChE percentage of inhibition at 10 µM; for IC50: mean ± SEM, 3 experiments, acetylthiocholine substrate
T3 construct: AChE from human erythrocytes (EC 3.1.1.7); purchased Sigma; host or cells: human erythrocytes (tissue-derived)
Protocol: as §1, §2

Raw 264.7 cells [4] = test: Cell viability (MTT) of Raw 264.7 cells; format: cell-based
Protocol: as §3

BuChE = target: T4, BuChE (Homo sapiens, UniProt P06276); test: Kinetic study of BuChE inhibition (Lineweaver-Burk plots); format: biochemical; parameters: key to Type of Inhibition (BuChE): M: mixed
T4 construct: BuChE from human serum (EC 3.1.1.8); purchased Sigma; host or cells: human serum (tissue-derived)
Protocol: To investigate the mechanism of action of the compounds on AChE or BuChE, a kinetic analysis was performed. The experiments were carried out using combinations of four substrate concentrations and three inhibitor concentrations. Double-reciprocal Lineweaver–Burk plots of the data obtained, in which each point is the mean of three different experiments, were analysed.
Competitive inhibitors have the same y-intercept as uninhibited enzymes (since Vmax is unaffected by competitive inhibitors the inverse of Vmax also doesn’t change), but there are different slopes and x-intercepts. Non-competitive inhibition produces plots with the same x-intercept as uninhibited enzyme (Km is unaffected) but different slopes and y-intercepts. Uncompetitive inhibition causes different intercepts on both the y- and x-axes, but the same slope. Mixed inhibitors cause intersects above or below the x-axes.
The Ki, values were determined by fitting the kinetic data to a competitive, non-competitive, or mixed inhibition model by nonlinear regression analysis using GraphPad Prism[35].

Raw 264.7 cells [5] = test: Nitrite determination (Griess) in LPS-stimulated Raw 264.7 cells; format: cell-based, murine; settings: LPS 0.4 µg/mL, 24 h
Protocol: The content of nitrite, one of the end-products of NO oxidation, was monitored by a procedure based on the diazotidation of nitrite by sulphanilic acid (Griess reaction). Twenty-four hours after the incubation of Raw 264.7 cells with 0.4 µg/mL of LPS, 50 µL of sample aliquots were mixed with 50 µL of Griess reagent in 96-well plates and incubated at room temperature for 15 min. The absorbance (520 nm) of the mixture was measured on a microplate reader. The concentration of nitrite was calculated with the linear equation derived from the standard curve generated by known concentrations of sodium nitrite.

[6] = 10 µM compound added 1 h prior to 5 µM Aβ

T4 sequence (P06276 29-602): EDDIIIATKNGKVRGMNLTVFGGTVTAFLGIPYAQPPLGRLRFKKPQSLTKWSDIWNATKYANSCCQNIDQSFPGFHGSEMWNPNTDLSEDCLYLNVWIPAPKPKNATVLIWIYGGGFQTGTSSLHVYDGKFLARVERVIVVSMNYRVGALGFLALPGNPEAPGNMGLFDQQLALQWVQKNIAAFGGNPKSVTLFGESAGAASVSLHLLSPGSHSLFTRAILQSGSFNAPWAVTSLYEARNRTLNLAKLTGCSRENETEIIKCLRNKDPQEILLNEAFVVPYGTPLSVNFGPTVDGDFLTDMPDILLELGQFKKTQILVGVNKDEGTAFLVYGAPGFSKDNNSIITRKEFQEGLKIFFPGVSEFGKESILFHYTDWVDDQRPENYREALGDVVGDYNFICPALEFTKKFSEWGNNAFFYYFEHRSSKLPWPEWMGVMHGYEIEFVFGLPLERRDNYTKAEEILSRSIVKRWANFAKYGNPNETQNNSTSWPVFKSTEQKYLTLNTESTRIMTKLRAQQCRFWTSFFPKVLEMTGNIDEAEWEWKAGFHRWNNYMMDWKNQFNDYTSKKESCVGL
T1 sequence (P06276 29-602): as above
T2 sequence (P56817 46-501): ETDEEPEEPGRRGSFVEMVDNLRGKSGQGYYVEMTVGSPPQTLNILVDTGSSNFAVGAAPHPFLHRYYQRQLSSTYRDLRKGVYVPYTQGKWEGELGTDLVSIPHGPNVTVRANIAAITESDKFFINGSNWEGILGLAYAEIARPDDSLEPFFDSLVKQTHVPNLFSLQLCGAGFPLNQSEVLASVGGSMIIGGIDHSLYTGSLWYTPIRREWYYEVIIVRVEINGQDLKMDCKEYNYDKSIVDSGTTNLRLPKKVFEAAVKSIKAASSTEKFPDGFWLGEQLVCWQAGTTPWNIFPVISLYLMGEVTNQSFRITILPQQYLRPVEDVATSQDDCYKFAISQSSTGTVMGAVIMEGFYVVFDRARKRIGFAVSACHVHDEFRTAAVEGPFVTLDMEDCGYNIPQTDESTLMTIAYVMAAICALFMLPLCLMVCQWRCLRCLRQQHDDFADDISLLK
T3 sequence (P22303 32-617 isoform P22303-2 limits assumed): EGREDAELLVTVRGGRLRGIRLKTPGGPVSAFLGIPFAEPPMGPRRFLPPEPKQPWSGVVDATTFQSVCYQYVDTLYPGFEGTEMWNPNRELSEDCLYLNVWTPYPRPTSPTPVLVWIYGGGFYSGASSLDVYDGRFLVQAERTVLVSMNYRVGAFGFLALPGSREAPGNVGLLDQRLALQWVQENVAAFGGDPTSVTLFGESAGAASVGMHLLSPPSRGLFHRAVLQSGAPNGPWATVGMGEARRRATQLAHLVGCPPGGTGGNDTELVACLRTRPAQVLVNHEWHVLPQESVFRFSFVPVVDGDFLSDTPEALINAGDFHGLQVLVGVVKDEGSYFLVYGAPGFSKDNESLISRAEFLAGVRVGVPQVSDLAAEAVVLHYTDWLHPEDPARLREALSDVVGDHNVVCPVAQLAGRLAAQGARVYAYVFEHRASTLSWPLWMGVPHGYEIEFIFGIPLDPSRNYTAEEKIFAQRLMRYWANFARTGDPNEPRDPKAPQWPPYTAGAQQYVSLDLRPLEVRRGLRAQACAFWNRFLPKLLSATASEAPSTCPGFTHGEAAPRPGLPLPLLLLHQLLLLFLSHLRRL

Row | SMILES | IC50 (BuChE from human serum) [µM] | IC50 (BACE1) [µM] | ORAC (Oxygen Radical Absorbance Capacity) [1] | Aβ-induced death of SH-SY5Y cells [2, 6] | inhibition at 10 µM [3] [%] | IC50 [3] [µM] | Cytotoxicity on Raw 264.7 cells viability (Raw 264.7 cells [4]; 10 µM) | Type of Inhibition (BuChE) (BuChE) | Aβ-induced death of SH-SY5Y cells ([2]; 5 µM compound added 1 h prior to 5 µM Aβ) | LPS-induced NO production (extracellular nitrite) (Raw 264.7 cells [5]; 10 µM compound) | Cytotoxicity on Raw 264.7 cells viability (Raw 264.7 cells [4]; 10, 20, 30, 40 µM) | LPS-induced NO production (extracellular nitrite) (Raw 264.7 cells [5]; 20, 30 and 40 µM compound)
1 | c1ccc(Cn2nc(OCc3cccc4ccccc34)c3cc(NCCCN4CCCCC4)ccc32)cc1 [Compound 1] | 3.2 ± 0.5 | 2.7 ± 0.1 | 1.1 ± 0.1 μmol of Trolox equivalents/μmol of tested compound | significantly reduced cell death | 23 | > 10 | show cytotoxicity | M |  |  |  | 
2 | Clc1cccc(Cn2nc(OCc3ccccc3)c3cc(NCCCN4CCCCC4)ccc32)c1Cl [Compound 2] | 0.4 ± 0.04 | 3.2 ± 0.2 | 0.7 ± 0.1 μmol of Trolox equivalents/μmol of tested compound |  | 27 | > 10 | show cytotoxicity | M | able to prevent cell death |  |  | 
3 | Clc1ccc(Cn2nc(OCc3cccc4ccccc34)c3cc(NCCCN4CCCCC4)ccc32)cc1Cl [Compound 3] | 0.17 ± 0.05 | 2.1 ± 0.2 | 0.6 ± 0.1 μmol of Trolox equivalents/μmol of tested compound | significantly reduced cell death | 38 | > 10 | did not show any significant cytotoxic effect | M |  | able to attenuate LPS-induced NO production |  | 
4 | Clc1ccc(Cn2nc(OCc3ccc4ccccc4c3)c3cc(NCCCN4CCCCC4)ccc32)cc1Cl [Compound 4] | 0.57 ± 0.2 | 1.9 ± 0.1 | 0.7 ± 0.1 μmol of Trolox equivalents/μmol of tested compound | significantly reduced cell death | 26 | > 10 | show cytotoxicity | M |  |  |  | 
5 | c1ccc2cc(COc3nn(Cc4ccc5ccccc5c4)c4ccc(NCCCN5CCCCC5)cc34)ccc2c1 [Compound 6] | 3.7 ± 0.3 | 3.4 ± 0.2 | 0 μmol of Trolox equivalents/μmol of tested compound | significantly reduced cell death |  | 9 ± 1 |  | M |  | able to attenuate LPS-induced NO production | did not show any significant cytotoxic effect | inhibited NO production
